# In publication PMC7956587, “Molecular Docking Studies and Biological Evaluation of Berberine–Benzothiazole Derivatives as an Anti-Influenza Agent via Blocking of Neuraminidase” (International Journal of Molecular Sciences, 2021):
# Test system: influenza A virus A/PR/8/34 (H1N1)
# Test: In vitro antiviral bioassay (CPE reduction, SRB) in MDCK cells
# Assay type: cell-based
# Conditions: Influenza A virus, MDCK, 48 h
row,SMILES,IC50 [µg/mL]
1,COc1ccc2cc3[n+](cc2c1OCCCCCNc1nc2ccc(Br)cc2s1)CCc1cc2c(cc1-3)OCO2 [BBD 8],68.02 ± 0.67
2,COc1ccc2cc3[n+](cc2c1OCCCCCNNc1nc2ccccc2s1)CCc1cc2c(cc1-3)OCO2 [BBD 14],40.3 ± 0.725
3,COc1ccc2cc3[n+](cc2c1OCCCCCNc1nc2ccccc2s1)CCc1cc2c(cc1-3)OCO2 [BBD 1],25.2 ± 0.154
4,COc1ccc2cc3[n+](cc2c1OCCCCCNc1nc2ccc(F)cc2s1)CCc1cc2c(cc1-3)OCO2 [BBD 10],30.5 ± 0.761

# Same assay, conditions: Therapeutic index, TI = CC50/IC50
row,SMILES,TI A/PR/8/34 (H1N1)
1,COc1ccc2cc3[n+](cc2c1OCCCCCNc1nc2ccc(Br)cc2s1)CCc1cc2c(cc1-3)OCO2 [BBD 8],4.835
2,COc1ccc2cc3[n+](cc2c1OCCCCCNNc1nc2ccccc2s1)CCc1cc2c(cc1-3)OCO2 [BBD 14],7.543
3,COc1ccc2cc3[n+](cc2c1OCCCCCNc1nc2ccccc2s1)CCc1cc2c(cc1-3)OCO2 [BBD 1],17.32
4,COc1ccc2cc3[n+](cc2c1OCCCCCNc1nc2ccc(F)cc2s1)CCc1cc2c(cc1-3)OCO2 [BBD 10],10.18

# Test system: influenza A virus A/Vic/3/75 (H3N2)
# Test: as above
# Assay type: cell-based
# Conditions: Influenza A virus, H3N2, MDCK, 48 h
row,SMILES,IC50 [µg/mL]
1,COc1ccc2cc3[n+](cc2c1OCCCCCNc1nc2ccc(Br)cc2s1)CCc1cc2c(cc1-3)OCO2 [BBD 8],70.7 ± 0.94
2,COc1ccc2cc3[n+](cc2c1OCCCCCNNc1nc2ccccc2s1)CCc1cc2c(cc1-3)OCO2 [BBD 14],56.3 ± 2.06
3,COc1ccc2cc3[n+](cc2c1OCCCCCNc1nc2ccccc2s1)CCc1cc2c(cc1-3)OCO2 [BBD 1],45.1 ± 1.75
4,COc1ccc2cc3[n+](cc2c1OCCCCCNc1nc2ccc(F)cc2s1)CCc1cc2c(cc1-3)OCO2 [BBD 10],49.9 ± 1.31

# Same assay, conditions: Therapeutic index, TI = CC50/IC50
row,SMILES,TI A/VIC/3/75 (H3N2)
1,COc1ccc2cc3[n+](cc2c1OCCCCCNc1nc2ccc(Br)cc2s1)CCc1cc2c(cc1-3)OCO2 [BBD 8],4.65
2,COc1ccc2cc3[n+](cc2c1OCCCCCNNc1nc2ccccc2s1)CCc1cc2c(cc1-3)OCO2 [BBD 14],5.403
3,COc1ccc2cc3[n+](cc2c1OCCCCCNc1nc2ccccc2s1)CCc1cc2c(cc1-3)OCO2 [BBD 1],9.672
4,COc1ccc2cc3[n+](cc2c1OCCCCCNc1nc2ccc(F)cc2s1)CCc1cc2c(cc1-3)OCO2 [BBD 10],6.228

# Test system: influenza B virus B/Lee/40
# Test: as above
# Assay type: cell-based
# Conditions: Influenza B virus; MDCK cells, 50 TCID50, 48 h, mean ± S.D., triplicate
row,SMILES,IC50 [µg/mL]
1,COc1ccc2cc3[n+](cc2c1OCCCCCNc1nc2ccc(Br)cc2s1)CCc1cc2c(cc1-3)OCO2 [BBD 8],74.8 ± 1.83
2,COc1ccc2cc3[n+](cc2c1OCCCCCNNc1nc2ccccc2s1)CCc1cc2c(cc1-3)OCO2 [BBD 14],70.3 ± 2.24
3,COc1ccc2cc3[n+](cc2c1OCCCCCNc1nc2ccccc2s1)CCc1cc2c(cc1-3)OCO2 [BBD 1],55.5 ± 3.77
4,COc1ccc2cc3[n+](cc2c1OCCCCCNc1nc2ccc(F)cc2s1)CCc1cc2c(cc1-3)OCO2 [BBD 10],64.6 ± 1.24

# Same assay, conditions: Therapeutic index, TI = CC50/IC50
row,SMILES,TI B/LEE/40
1,COc1ccc2cc3[n+](cc2c1OCCCCCNc1nc2ccc(Br)cc2s1)CCc1cc2c(cc1-3)OCO2 [BBD 8],4.395
2,COc1ccc2cc3[n+](cc2c1OCCCCCNNc1nc2ccccc2s1)CCc1cc2c(cc1-3)OCO2 [BBD 14],4.327
3,COc1ccc2cc3[n+](cc2c1OCCCCCNc1nc2ccccc2s1)CCc1cc2c(cc1-3)OCO2 [BBD 1],7.874
4,COc1ccc2cc3[n+](cc2c1OCCCCCNc1nc2ccc(F)cc2s1)CCc1cc2c(cc1-3)OCO2 [BBD 10],4.812

# Test system: influenza B virus B/Maryland/1/59
# Test: as above
# Assay type: cell-based
# Conditions: Influenza B virus; MDCK cells, 50 TCID50, 48 h, mean ± S.D., triplicate; read-out: IC50 B/MARYLAND/1/59
row,SMILES,IC50 [µg/mL]
1,COc1ccc2cc3[n+](cc2c1OCCCCCNc1nc2ccc(Br)cc2s1)CCc1cc2c(cc1-3)OCO2 [BBD 8],81.2 ± 0.91
2,COc1ccc2cc3[n+](cc2c1OCCCCCNNc1nc2ccccc2s1)CCc1cc2c(cc1-3)OCO2 [BBD 14],73.4 ± 2.17
3,COc1ccc2cc3[n+](cc2c1OCCCCCNc1nc2ccccc2s1)CCc1cc2c(cc1-3)OCO2 [BBD 1],55.1 ± 2.65
4,COc1ccc2cc3[n+](cc2c1OCCCCCNc1nc2ccc(F)cc2s1)CCc1cc2c(cc1-3)OCO2 [BBD 10],75.7 ± 2.06

# Same assay, conditions: Therapeutic index, TI = CC50/IC50
row,SMILES,TI B/MARYLAND/1/59
1,COc1ccc2cc3[n+](cc2c1OCCCCCNc1nc2ccc(Br)cc2s1)CCc1cc2c(cc1-3)OCO2 [BBD 8],4.052
2,COc1ccc2cc3[n+](cc2c1OCCCCCNNc1nc2ccccc2s1)CCc1cc2c(cc1-3)OCO2 [BBD 14],4.143
3,COc1ccc2cc3[n+](cc2c1OCCCCCNc1nc2ccccc2s1)CCc1cc2c(cc1-3)OCO2 [BBD 1],7.924
4,COc1ccc2cc3[n+](cc2c1OCCCCCNc1nc2ccc(F)cc2s1)CCc1cc2c(cc1-3)OCO2 [BBD 10],4.100

# Target: influenza virus neuraminidase (Influenza A virus, UniProt P03468)
# Test: Viral neuraminidase inhibition assay (NA-Star kit)
# Assay type: biochemical, influenza A/PR/8/34 virus
# Conditions: at 0.1 μg/mL; (Treatment/Virus) × 100, remaining activity
# Sequence of influenza virus neuraminidase (P03468 whole entry, looked up): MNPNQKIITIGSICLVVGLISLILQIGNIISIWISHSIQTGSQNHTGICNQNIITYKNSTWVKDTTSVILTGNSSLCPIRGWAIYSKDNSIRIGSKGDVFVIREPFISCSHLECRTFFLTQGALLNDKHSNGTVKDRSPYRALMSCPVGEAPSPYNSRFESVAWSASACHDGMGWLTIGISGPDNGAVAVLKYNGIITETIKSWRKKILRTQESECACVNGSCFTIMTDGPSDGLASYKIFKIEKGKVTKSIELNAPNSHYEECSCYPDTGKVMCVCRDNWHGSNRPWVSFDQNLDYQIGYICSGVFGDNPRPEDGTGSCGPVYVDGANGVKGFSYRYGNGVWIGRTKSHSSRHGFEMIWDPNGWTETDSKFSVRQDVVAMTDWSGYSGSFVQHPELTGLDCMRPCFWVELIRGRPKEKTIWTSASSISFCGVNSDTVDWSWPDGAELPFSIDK
row,SMILES,activity at 0.1 µg/mL [%]
1,COc1ccc2cc3[n+](cc2c1OCCCCCNc1nc2ccccc2s1)CCc1cc2c(cc1-3)OCO2 [BBD 1],40.3

# Same assay, conditions: at 1 μg/mL; (Treatment/Virus) × 100, remaining activity
row,SMILES,activity at 1 µg/mL [%]
1,COc1ccc2cc3[n+](cc2c1OCCCCCNc1nc2ccccc2s1)CCc1cc2c(cc1-3)OCO2 [BBD 1],30.4

# Same assay, conditions: at 10 μg/mL; (Treatment/Virus) × 100, remaining activity
row,SMILES,activity at 10 µg/mL [%]
1,COc1ccc2cc3[n+](cc2c1OCCCCCNc1nc2ccccc2s1)CCc1cc2c(cc1-3)OCO2 [BBD 1],15.6

# Test system: MDCK cells
# Test: not given
# Conditions: dog, 48 h
row,SMILES,CC50 [µg/mL]
1,COc1ccc2cc3[n+](cc2c1OCCCCCNc1nc2ccc(Br)cc2s1)CCc1cc2c(cc1-3)OCO2 [BBD 8],328.9 ± 1.065
2,COc1ccc2cc3[n+](cc2c1OCCCCCNNc1nc2ccccc2s1)CCc1cc2c(cc1-3)OCO2 [BBD 14],304.3 ± 1.261
3,COc1ccc2cc3[n+](cc2c1OCCCCCNc1nc2ccccc2s1)CCc1cc2c(cc1-3)OCO2 [BBD 1],436.7 ± 2.635
4,COc1ccc2cc3[n+](cc2c1OCCCCCNc1nc2ccc(F)cc2s1)CCc1cc2c(cc1-3)OCO2 [BBD 10],310.6 ± 1.629

# Test system: not listed separately
# Test: in vitro
# Conditions: dog
row,SMILES,CC50 at 48 h [µg/mL]
1,COc1ccc2cc3[n+](cc2c1OCCCCCNc1nc2ccc(Br)cc2s1)CCc1cc2c(cc1-3)OCO2 [BBD 8],> 100
2,COc1ccc2cc3[n+](cc2c1OCCCCCNNc1nc2ccccc2s1)CCc1cc2c(cc1-3)OCO2 [BBD 14],> 100
3,COc1ccc2cc3[n+](cc2c1OCCCCCNc1nc2ccccc2s1)CCc1cc2c(cc1-3)OCO2 [BBD 1],> 100
4,COc1ccc2cc3[n+](cc2c1OCCCCCNc1nc2ccc(F)cc2s1)CCc1cc2c(cc1-3)OCO2 [BBD 10],> 100
